Measurements: patent US20060074083A1, “Cyclic and acyclic propenones for treating CNS disorders” (MERZ PHARMA GMBH & CO. KGAA, priority 2004, published 2006)

Compound | melting point [°C]
COc1cc(/C=C/C(=O)C23CC4CC(CC(C4)C2)C3)cc(OC)c1 [Example 4, 1-Adamantan-1-yl-3-(3,5-dimethoxy-phenyl)-propenone] | 118 to 119
O=C(/C=C/c1cnc2ccccc2c1)C1CC1 [Example 5, 1-Cyclopropyl-3-quinolin-3-yl-propenone] | 101 to 102

Continued, values first:

melting point [°C] | Compound
169 to 171 | O=C(/C=C/c1cnc2ccccc2c1)C12CC3CC(CC(C3)C1)C2 [Example 7, 1-Adamantan-1-yl-3-quinolin-3-yl-propenone]
125 to 127 | O=C(/C=C/c1ccc2c(c1)OCCO2)C12CC3CC(CC(C3)C1)C2 [Example 11, 1-Adamantan-1-yl-3-(2,3-dihydrobenzo[1,4]dioxin-6-yl)-propenone]
138 to 140 | COc1ccc(/C=C/C(=O)C23CC4CC(CC(C4)C2)C3)cc1C [Example 10, 1-Adamantan-1-yl-3-(4-methoxy-3-methyl-phenyl)-propenone]
